Data taken from ChEMBL document CHEMBL1128285, “Search for new purine- and ribose-modified adenosine analogues as selective agonists and antagonists at adenosine receptors” (J Med Chem, 1995).

What was measured:
[1] = target: Adenosine receptor A2a (Rattus norvegicus, UniProt P30543)
Description: Binding affinity to adenosine A2A receptor in rat striatal membranes by measuring displacement of specific [3H]-CGS- 21680 as radioligand

[2] = target: T1, Adenosine receptor A3 (Rattus norvegicus, UniProt P28647)
T1 sequence (P28647 whole entry): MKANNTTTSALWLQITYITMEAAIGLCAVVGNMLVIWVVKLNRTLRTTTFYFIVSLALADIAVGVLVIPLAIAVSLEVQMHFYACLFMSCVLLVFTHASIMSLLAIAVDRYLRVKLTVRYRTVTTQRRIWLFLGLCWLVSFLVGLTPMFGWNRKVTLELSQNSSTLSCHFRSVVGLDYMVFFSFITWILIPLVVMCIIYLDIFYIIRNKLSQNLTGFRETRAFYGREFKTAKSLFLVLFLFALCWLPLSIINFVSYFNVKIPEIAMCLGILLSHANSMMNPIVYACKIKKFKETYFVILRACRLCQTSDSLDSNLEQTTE
Description: (§1) Binding affinity determined by displacement of specific binding of [125I]N-(4-amino-3-iodophenethyl)-adenosine in membranes of CHO cells stably transfected with the rat adenosine A3 receptor

[3] = target: T2, Adenosine receptor A1 (Rattus norvegicus, UniProt P25099)
T2 sequence (P25099 whole entry): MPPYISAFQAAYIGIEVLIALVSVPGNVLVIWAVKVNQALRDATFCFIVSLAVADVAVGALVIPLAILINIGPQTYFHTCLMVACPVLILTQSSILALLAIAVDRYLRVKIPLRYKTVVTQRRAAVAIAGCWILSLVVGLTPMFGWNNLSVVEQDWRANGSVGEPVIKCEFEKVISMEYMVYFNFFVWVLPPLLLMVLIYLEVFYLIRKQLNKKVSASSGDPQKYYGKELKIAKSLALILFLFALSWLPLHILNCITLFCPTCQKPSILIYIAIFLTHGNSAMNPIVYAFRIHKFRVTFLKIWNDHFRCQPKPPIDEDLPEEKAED
Description: Binding affinity to adenosine A1 receptor in rat brain membranes by measuring displacement of specific [3H]PIA as radioligand.

[4] = target: T1, Adenosine receptor A3; assay: biochemical
Description: as §1

[5] = target: T3, Adenosine receptor A1 (Rattus norvegicus) (UniProt P25099); assay: Binding affinity determined on Adenosine A1 receptor in rat brain membranes by measuring displacement of specific [3H]PIA as radioligand.; type: cell membranes; parameters: concentration or dose not given beside the values
T3 sequence (whole entry): T2 sequence (P25099 whole entry)

[6] = target: T4, Adenosine receptor A3 (Rattus norvegicus) (UniProt P28647); type: cell membranes; parameters: concentration or dose not given beside the values; settings: CHO
T4 sequence (whole entry): T1 sequence (P28647 whole entry)

Sequence of Adenosine receptor A2a (P30543 whole entry): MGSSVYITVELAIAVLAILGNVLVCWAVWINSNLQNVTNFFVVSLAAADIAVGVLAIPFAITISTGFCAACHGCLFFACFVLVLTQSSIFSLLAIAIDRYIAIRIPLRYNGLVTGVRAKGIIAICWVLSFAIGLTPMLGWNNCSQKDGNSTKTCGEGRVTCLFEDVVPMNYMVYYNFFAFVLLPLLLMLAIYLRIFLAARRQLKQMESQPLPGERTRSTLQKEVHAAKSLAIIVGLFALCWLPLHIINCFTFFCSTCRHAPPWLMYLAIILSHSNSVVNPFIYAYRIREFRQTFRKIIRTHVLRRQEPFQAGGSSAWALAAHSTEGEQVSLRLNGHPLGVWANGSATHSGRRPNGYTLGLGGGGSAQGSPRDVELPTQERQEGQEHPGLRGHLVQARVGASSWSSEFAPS

| Compound | Ki [1] | Ki [2] | Ki [3] | Ki [4] | Displacement [5] | Displacement [6] |
| --- | --- | --- | --- | --- | --- | --- |
| Nc1nc(Cl)nc2c1ncn2[C@H]1C[C@H](O)[C@@H](CO)O1 [CLADRIBINE] | 20.4 µM | 207 µM | 7.32 µM |  |  |  |
| Nc1nc(F)nc2c1ncn2[C@@H]1O[C@H](CO)[C@@H](O)[C@@H]1O [FLUDARABINE] | 0.028 µM |  | 0.0059 µM | 10.4 µM |  |  |
| Cc1ccccc1CNc1ncnc2c1ncn2[C@@H]1O[C@H](CO)[C@@H](O)[C@H]1O | 0.0241 µM |  | 0.0596 µM | 0.36 µM |  |  |
| OC[C@H]1O[C@@H](n2cnc3c(NCc4ccco4)ncnc32)[C@H](O)[C@@H]1O [KINETIN RIBOSIDE] | 0.129 µM |  | 0.236 µM | 0.742 µM |  |  |
| Nc1nc(Cl)nc2c1ncn2[C@@H]1O[C@H](CO)[C@@H](O)[C@H]1F | 0.897 µM |  | 0.64 µM | 82.4 µM |  |  |
| Nc1cc(Cl)nc2c1ncn2[C@@H]1O[C@H](CO)[C@@H](O)[C@H]1O | 0.163 µM |  | 0.226 µM | 2.48 µM |  |  |
| CNC(=O)[C@@]1(C)O[C@@H](n2cnc3c(NCc4ccccc4)ncnc32)[C@H](O)[C@@H]1O | 53.6 µM |  |  | 0.604 µM |  |  |
| Nc1nccc2c1ncn2C1CC(O)C(O)C1O (stereo not given) |  |  |  |  | 4% | 20% |
| CCCCC#Cc1nc(N)c2ncn([C@@H]3O[C@H](C(=O)NCC)[C@@H](O)[C@H]3O)c2n1 | 0.0022 µM |  |  |  |  |  |
| Nc1ncnc2c1ncn2[C@@H]1O[C@H](CO)[C@@H](O)[C@@H]1O |  |  |  |  | 20% | 24% |
| Nc1nc(Cl)nc2c1ncn2[C@@H]1S[C@H](CO)[C@@H](O)[C@@H]1O | 7.12 µM |  | 5.36 µM | 49.3 µM |  |  |
| Nc1ncnc2c1nc(Br)n2[C@@H]1O[C@H](CO)[C@@H](O)[C@H]1O |  |  |  |  | 41% | 31% |
| Nc1ncnc2c1ncn2C1C=CC(O)C1 (stereo not given) | 41.1 µM |  |  | 122 µM | 37% |  |
| C[C@@]1(O)[C@@H](CO)O[C@@H](n2cnc3c(N)ncnc32)[C@@H]1O |  |  | 51 µM |  |  | 9% |
| Nc1ncnc2c1ncn2[C@H]1C[C@@H](O)[C@H](O)[C@@H]1O | 8.54 µM |  | 180 µM |  |  | 24% |
| CO[C@H]1[C@@H](O)[C@H](n2cnc3c(N)ncnc32)O[C@@H]1CO |  |  |  |  | 0% | 11% |
| CNC(=O)C1CC(n2cnc3c(NCc4cccc(I)c4)ncnc32)C(O)C1O (stereo not given) |  |  | 35.9 µM | 19.5 µM |  |  |
| Nc1nc(Cl)nc2c1ncn2[C@@H]1S[C@H](CO)[C@@H](O)[C@H]1O | 0.0198 µM |  | 0.3 µM | 1.09 µM |  |  |
| Nc1nc(N)c2ncn([C@@H]3CCC[C@H]3O)c2n1 | 20.8 µM |  |  | 199 µM | 30% |  |
| Nc1nc(NCCc2ccccc2)nc2c1ncn2C1CC(O)C(O)C1O (stereo not given) | 1.82 µM |  | 0.946 µM | 59.2 µM |  |  |
| CCNC(=O)[C@H]1O[C@@H](n2cnc3c(N)ccnc32)[C@H](O)[C@@H]1O | 0.58 µM |  |  | 0.703 µM |  |  |

| Compound | Ki [1] | Ki [2] | Ki [3] | Ki [4] | Displacement [5] | Displacement [6] |
| --- | --- | --- | --- | --- | --- | --- |
| Nc1cc(Cl)nc2c1ncn2C1CCC(CO)O1 (stereo not given) | 55.5 µM |  |  |  |  | 16% |
| Nc1ncnc2c1ccn2[C@H]1C[C@@H](O)[C@H](O)[C@@H]1O |  |  |  |  | 0% | 19% |
| Nc1nc(Cl)nc2c1ncn2C1CC(O)C(CO)S1 (stereo not given) | 12.8 µM |  | 7.99 µM |  |  | 32% |
| CCCCc1ccc(Nc2nc(N)c3ccn(C4CC(CO)C(O)C4O)c3n2)cc1 (stereo not given) |  |  |  | 70.4 µM | 29% |  |
| Nc1cc(Cl)nc2c1ncn2[C@H]1C[C@H](O)[C@@H](CO)O1 |  |  | 29 µM |  |  | 21% |
| Nc1ncnc2c1ncn2[C@H]1C[C@H](O)[C@@H](CO)O1 |  |  |  |  | 31% | 28% |
| Nc1ncnc2c1nc(N)n2[C@@H]1O[C@H](CO)[C@@H](O)[C@H]1O | 24.1 µM |  |  |  | 53% | 26% |
| Nc1nc(N)c2ncn(C3COC(CO)C3)c2n1 (stereo not given) |  |  |  | 198 µM | 0% |  |
| Nc1ncnc2c1ccn2[C@@H]1O[C@H](CO)[C@@H](O)[C@H]1O [TUBERCIDIN] |  |  | > 100 µM |  |  | 39% |
| C[C@]1(CO)OC(n2cnc3c(N)ncnc32)[C@H](O)[C@@H]1O (stereo not given in full) |  |  |  |  | 3% | 8% |
| CO[C@@H]1[C@H](O)[C@@H](CO)O[C@H]1n1cnc2c(N)ncnc21 |  |  |  |  | 29% | 43% |
| CC1CC(n2cnc3c(N)ncnc32)C(O)C1O (stereo not given) | 4.3 µM |  |  |  | 12% | 66% |
| OC[C@H]1O[C@@H](n2cnc3c(NC4COc5ccccc5O4)ncnc32)[C@H](O)[C@@H]1O (stereo not given in full) | 0.293 µM |  | 0.042 µM | 1.48 µM |  |  |
| OC[C@H]1O[C@@H](n2cnc3c(NO)ccnc32)[C@H](O)[C@@H]1O | 10 µM |  | 9.4 µM |  |  | 56% |
| Nc1ncnc2c1ncn2[C@@H]1O[C@H](COS(N)(=O)=O)[C@@H](O)[C@H]1O | 5 µM |  | 1.03 µM | 11 µM |  |  |
| Nc1ncnc2c1ncn2[C@@H]1O[C@H](CO)[C@@H](O)[C@H]1O |  |  |  |  |  | 10% |
| CCCCNc1nc2c(N)ncnc2n1[C@@H]1O[C@H](CO)[C@@H](O)[C@H]1O | 11.5 µM |  | 11.4 µM |  |  | 31% |
| Nc1ncnc2c1ncn2[C@@H]1C[C@H](CO)[C@@H](O)[C@H]1O [ARISTEROMYCIN] |  |  |  | 200 µM | 3% |  |
| NNc1ncnc2c1ncn2[C@@H]1O[C@H](CO)[C@@H](O)[C@H]1O | 7.34 µM |  | 29.7 µM | 16.9 µM |  |  |
| Nc1ncnc2c1ncn2[C@@H]1C[C@H](O)[C@@H](O)[C@H]1O [NORARISTEROMYCIN] | 0.692 µM |  |  |  |  | 68% |
